In this experiment the target is T1, human GOAT (Homo sapiens, UniProt Q96T53).
T1 construct: made in house; host or cells: Sf9 insect cells (BacToBac baculovirus, pFastBac1 vector); microsome fraction
T1 sequence (Q96T53 1-435): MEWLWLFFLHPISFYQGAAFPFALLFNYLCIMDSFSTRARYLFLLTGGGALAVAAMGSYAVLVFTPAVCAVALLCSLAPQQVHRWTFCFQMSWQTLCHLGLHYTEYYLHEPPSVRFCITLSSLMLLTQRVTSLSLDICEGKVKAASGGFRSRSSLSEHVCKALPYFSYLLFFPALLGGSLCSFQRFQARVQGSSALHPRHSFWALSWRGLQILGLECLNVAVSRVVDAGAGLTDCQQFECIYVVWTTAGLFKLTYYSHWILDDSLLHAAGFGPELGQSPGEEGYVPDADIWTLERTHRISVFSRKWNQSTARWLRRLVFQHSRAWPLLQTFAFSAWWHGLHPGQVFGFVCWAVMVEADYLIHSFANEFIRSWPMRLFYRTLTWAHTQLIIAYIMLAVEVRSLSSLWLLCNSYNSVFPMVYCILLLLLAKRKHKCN
Kind of experiment: GOAT enzyme activity measurement by HTRF method (human GOAT-expressing microsome fraction). The class given is biochemical. The following applies: 10 μM compound; human GOAT-expressing Sf9 microsome fraction; octanoyl-CoA and Ghrelin-biotin substrates; 0% control without compound, 100% control without enzyme. On the procedure: Human GOAT (Accession NO: EU518495) cDNA was amplified by PCR including reaction of (1) 98° C., 1 min, (2) 35 repeats of 98° C., 10 sec·65° C., 15 sec·72° C., 80 sec, and (3) 72° C., 5 min, using human stomach cDNA library (Takara Bio) as a template and Pyrobest DNA Polymerase (Takara Bio). The amplified fragment was treated with restriction enzymes, inserted into Stu I/Not I sites of pFastBacl (Invitrogen) by using Ligation High (TOYOBO), and transfected into ECOS JM109 (Nippon Gene) to construct pFB/hGOAT.
Production of Baculovirus and Preparation of Insect Cell Microsome Fraction
For preparation of baculovirus from pFB/hGOAT, BacToBac baculovirus expression system (Invitrogen) was used. The virus titer was measured by Real-Time PCR using SYBR Green (Takara Bio). Sf9 cells were infected with the obtained baculovirus at Multiplicity of Infection (MOI)=0.2, and cultured for 70 hr. The Sf9 cells were recovered, suspended in a suspension buffer (TBS (0.3 M NaCl), 1 mM DTT, 1 mM EDTA, Complete (Roche) (1 tablet/50 mL)), and the cells were disrupted twice on ice at 20000 rpm, 30 sec using a polytron homogenizer. The cell disruption solution was centrifuged at 1000 rpm for 10 min at 4° C., the supernatant was further ultracentrifuged at 40000 rpm for 30 min at 4° C. and the precipitate was recovered. The obtained precipitate was suspended in the suspension buffer used above to give a human GOAT-expressing microsome fraction. The protein level was measured using BCA Protein assay Reagent (PIERCE).
Enzyme Activity Measurement by HTRF Method
A compound solution (2 μL) diluted with an assay buffer containing 50 mM Tris-HCl (pH 7.5), 0.5% TWEEN20, and Complete to 15% DMSO and 90 μg/mL human GOAT-expressing microsome fraction (2 μL) were incubated at room temperature for 20 min, after which a substrate mixed solution (2 μL) containing 30 μM octanoyl-CoA (CHEM-IMPLEX) and 3 μM Ghrelin-biotin ([…]epsilon aminocaproic acid-biotin (Greiner Coutom synthesis)) was added to 384 white small volume plate (Greiner). After reaction for 20 min, 2 μL of citrate buffer (pH3) (mixed solution of 0.1 M citric acid (39.8 mL) and 0.2 M Na2HPO4 (10.2 mL)), 2 μL of 25 nM anti-active ghrelin antibody (produced in mouse), 5 μL of Eu(K)-Anti Mouse IgG Pab (Cis Bio) 100-fold diluted with HTRF detection buffer (Cis Bio) and 5 μL of streptavidin-Xlent (Cis Bio) 66.6-fold diluted with HTRF detection buffer (Cis Bio) were added. After incubation at room temperature for 1 hr or longer, the fluorescence values at 620 nm and 665 nm were measured by Envision (PerkinElmer). The data was calculated [(665 nm signal/620 nm signal)×10^4], and the inhibitory activity against human GOAT was shown by the data where 0% control was without compound, and 100% control was without enzyme.
(In general: Time-resolved FRET reads energy transfer from a long-lived donor to a nearby acceptor.)

This note sets out measurements from patent publication US9238639B2, “Aromatic ring compound” (TAKEDA PHARMACEUTICAL COMPANY LIMITED, priority 2012, dated 2016).

For the compound `Cc1nc(C(F)(F)F)ccc1COc1cc(Cl)c2c(CC(=O)O)csc2c1Cl` [Example 30, (4,7-Dichloro-6-((2-methyl-6-(trifluoromethyl)pyridin-3-yl)methoxy)-1-benzothiophen-3-yl)acetic acid], the inhibition at 10 µM was determined as 106%.
For `Cc1ccc(COc2cc(C(F)(F)F)c3c(CC(=O)O)csc3c2)c(C)n1` [Example 31, (6-((2,6-Dimethylpyridin-3-yl)methoxy)-4-(trifluoromethyl)-1-benzothiophen-3-yl)acetic acid], the inhibition at 10 µM came out at 103%.
Regarding `Cn1nc(C(F)(F)F)cc1COc1cc(C(F)(F)F)c2c(CC(=O)O)csc2c1` [Example 32, (6-((1-Methyl-3-(trifluoromethyl)-1H-pyrazol-5-yl)methoxy)-4-(trifluoromethyl)-1-benzothiophen-3-yl)acetic acid], the inhibition at 10 µM worked out at 103%.
The figure for `COC(=O)Cc1csc2c(F)c(OCc3cc(C(F)(F)F)nn3C)cc(C)c12` [Example 33, Methyl(7-fluoro-4-methyl-6-((1-methyl-3-(trifluoromethyl)-1H-pyrazol-5-yl)methoxy)-1-benzothiophen-3-yl)acetate] is 96.1%; for `Cc1cc(OCc2cc(C(F)(F)F)nn2C)c(F)c2scc(CC(=O)O)c12` [Example 34, (7-Fluoro-4-methyl-6-((1-methyl-3-(trifluoromethyl)-1H-pyrazol-5-yl)methoxy)-1-benzothiophen-3-yl)acetic acid] it is 104%.
Take `COC(=O)Cc1csc2c(F)c(OCc3ccc(C(F)(F)F)nc3C)cc(C)c12` [Example 35, Methyl(7-fluoro-4-methyl-6-((2-methyl-6-(trifluoromethyl)pyridin-3-yl)methoxy)-1-benzothiophen-3-yl)acetate]: the inhibition at 10 µM worked out at 94%.
On to `Cc1nc(C(F)(F)F)ccc1COc1cc(C)c2c(CC(=O)O)csc2c1F` [Example 36, (7-Fluoro-4-methyl-6-((2-methyl-6-(trifluoromethyl)pyridin-3-yl)methoxy)-1-benzothiophen-3-yl)acetic acid], for which the inhibition at 10 µM was found to be 106%.
Regarding `COC(=O)Cc1csc2c(F)c(OCc3cc(C(F)(F)F)nn3C)cc(Cl)c12` [Example 37, Methyl(4-chloro-7-fluoro-6-((1-methyl-3-(trifluoromethyl)-1H-pyrazol-5-yl)methoxy)-1-benzothiophen-3-yl)acetate], the inhibition at 10 µM was 98.9%.
As for `Cn1nc(C(F)(F)F)cc1COc1cc(Cl)c2c(CC(=O)O)csc2c1F` [Example 38, (4-Chloro-7-fluoro-6-((1-methyl-3-(trifluoromethyl)-1H-pyrazol-5-yl)methoxy)-1-benzothiophen-3-yl)acetic acid], the inhibition at 10 µM came to 107%.
Turning to `COC(=O)Cc1csc2c(F)c(OCc3ccc(C(F)(F)F)nc3C)cc(Cl)c12` [Example 39, Methyl(4-chloro-7-fluoro-6-((2-methyl-6-(trifluoromethyl)pyridin-3-yl)methoxy)-1-benzothiophen-3-yl)acetate], the inhibition at 10 µM came out at 88.6%.
For `Cc1nc(C(F)(F)F)ccc1COc1cc(Cl)c2c(CC(=O)O)csc2c1F` [Example 40, (4-Chloro-7-fluoro-6-((2-methyl-6-(trifluoromethyl)pyridin-3-yl)methoxy)-1-benzothiophen-3-yl)acetic acid], the inhibition at 10 µM came out at 106%.
The figure for `O=C(O)Cc1coc2c(Cl)c(OCc3ccc(Cl)cc3Cl)ccc12` [Example 42, (7-Chloro-6-((2,4-dichlorobenzyl)oxy)-1-benzofuran-3-yl)acetic acid] is 100%; for `COC(=O)Cc1coc2c(C)c(OCc3ccc(C)nc3C)cc(C)c12` [Example 43, Methyl(6-((2,6-dimethylpyridin-3-yl)methoxy)-4,7-dimethyl-1-benzofuran-3-yl)acetate] it is 92.7%.
`Cc1ccc(COc2cc(C)c3c(CC(=O)O)coc3c2C)c(C)n1` [Example 44, (6-((2,6-Dimethylpyridin-3-yl)methoxy)-4,7-dimethyl-1-benzofuran-3-yl)acetic acid]: the inhibition at 10 µM turned out to be 102%.
As for `COC(=O)Cc1coc2c(C)c(OCc3ccc(Cl)cc3Cl)cc(C)c12` [Example 45, Methyl(6-((2,4-dichlorobenzyl)oxy)-4,7-dimethyl-1-benzofuran-3-yl)acetate], the figure is 68.7%.
Turning to `Cc1c(OCc2ccc(Cl)cc2Cl)cc(C)c2c(CC(=O)O)coc12` [Example 46, (6-((2,4-Dichlorobenzyl)oxy)-4,7-dimethyl-1-benzofuran-3-yl)acetic acid], the inhibition at 10 µM worked out at 103%.
Turning to `O=C(O)CC1CSc2cc(OCc3ccc(Cl)cc3Cl)ccc21` (stereo not drawn) [Example 50, (6-((2,4-Dichlorobenzyl)oxy)-2,3-dihydro-1-benzothiophen-3-yl)acetic acid], the inhibition at 10 µM came out at 99%.
`O=C(O)CC1CS(=O)(=O)c2cc(OCc3ccc(Cl)cc3Cl)ccc21` (stereo not drawn) [Example 52, (6-((2,4-Dichlorobenzyl)oxy)-1,1-dioxido-2,3-dihydro-1-benzothiophen-3-yl)acetic acid]: the inhibition at 10 µM was determined as 79%.
The figure for `CCOC(=O)CNC(=O)Cc1csc2cc(OCc3ccc(Cl)cc3Cl)ccc12` [Example 53, Ethyl N-((6-((2,4-dichlorobenzyl)oxy)-1-benzothiophen-3-yl)acetyl)glycinate] is 56%.
As for `COC(=O)[C@H](CO)NC(=O)Cc1csc2cc(OCc3ccc(Cl)cc3Cl)ccc12` [Example 54, Methyl N-((6-((2,4-dichlorobenzyl)oxy)-1-benzothiophen-3-yl)acetyl)serinate], the figure is 86%.
As for `O=C(O)CNC(=O)Cc1csc2cc(OCc3ccc(Cl)cc3Cl)ccc12` [Example 55, N-((6-((2,4-Dichlorobenzyl)oxy)-1-benzothiophen-3-yl)acetyl)glycine], the figure is 95%.
Take `O=C(Cc1csc2cc(OCc3ccc(Cl)cc3Cl)ccc12)N[C@@H](CO)C(=O)O` [Example 56, N-((6-((2,4-Dichlorobenzyl)oxy)-1-benzothiophen-3-yl)acetyl)serine]: the inhibition at 10 µM came out at 97%.
As for `O=C(O)Cc1csc2cc(SCc3ccc(Cl)cc3Cl)ccc12` [Example 80, (6-((2,4-Dichlorobenzyl)sulfanyl)-1-benzothiophen-3-yl)acetic acid], the figure is 99.3%; as for `O=C(O)Cc1csc2cc(S(=O)(=O)Cc3ccc(Cl)cc3Cl)ccc12` [Example 83, (6-((2,4-Dichlorobenzyl)sulfonyl)-1-benzothiophen-3-yl)acetic acid], 83%.
The figure for `O=C(O)Cc1csc2cc([S+]([O-])Cc3ccc(Cl)cc3Cl)ccc12` (stereo not drawn) [Example 84, (6-((2,4-Dichlorobenzyl)sulfinyl)-1-benzothiophen-3-yl)acetic acid] is 67%; for `Cc1nc(C(F)(F)F)ccc1COc1ccc2c(CC(=O)O)csc2c1` [Example 135, (6-((2-Methyl-6-(trifluoromethyl)pyridin-3-yl)methoxy)-1-benzothiophen-3-yl)acetic acid] it is 93.1%; for `Cc1nc(C(F)(F)F)ncc1COc1ccc2c(CC(=O)O)csc2c1` [Example 137, (6-((4-Methyl-2-(trifluoromethyl)pyrimidin-5-yl)methoxy)-1-benzothiophen-3-yl)acetic acid] it is 97.3%.

A word on the inhibition: it is the relative decrease from the control value, in per cent.
